# US20230241024A1, “METHODS OF TREATING METABOLIC DISORDERS” (Sunovion Pharmaceuticals Inc., priority 2021, published 2023)
# Tests used:
# [1] = system: female Sprague Dawley rats previously treated with olanzapine; assay: Body weight, food intake, body composition and liver triglycerides of rats previously treated with olanzapine and switched (Example 2.2); format: in vivo, rat
# Procedure: Rats were singly housed in cages with sawdust bedding and enrichment at an ambient temperature of 21±2° C. Upon arrival (Thursday), rats were weighed and given wet mash to aid recovery from transport. Rats were weighed the following day and the Monday of the following week. Animals were maintained on a reverse-phase light-dark cycle (lights off for 8 h from 10:00-18:00 h) during which time the room was illuminated by red light. Rats were weighed on the Friday and Monday of the following week. […] All animals had free access to a high-fat powdered diet (VRF1 plus 20% lard) and all rats had access to filtered water at all times. The diets were contained in glass feeding jars with aluminum lids (Solmedia Laboratory Suppliers, Romford, Essex). […] Animals were accustomed to these conditions for at least two weeks before experimentation.
# Dosing was timed to start at approximately 08:45 so that the mid-point was approximately the time of lights out. Animals, food and water were weighed at the time of dosing. Towards the end of this baseline period, animals were weighed (to the nearest 0.1 g using an electronic top-pan balance) and allocated into 2 weight-matched treatment groups by a Statistician.
# Dosing began at approximately 08:45 h each day (0 h), i.e., so the mid-point of dosing was approximately at the time of lights out. This strategy was taken to maximize the impact of the drugs on food intake. Dosing continued for 7 consecutive days and rats were weighed (to the nearest 0.1 g) every day at 0 h. Prior to and at the completion of each dosing session animals were examined and any overt behavioral/physiological effects or other relevant observations regarding the condition of the animals was recorded manually. […] and food intake were assessed daily.
# Dosing began at approximately 08:45 h each day (0h), i.e., the mid-point of dosing was approximately at the time of lights out. Body weight, food and water intake was recorded daily at the time of dosing. All rats were observed before and after dosing and comments on condition were noted as appropriate. On the afternoon of Day 14 (approx. 16:00) animals were fasted to a timed schedule. The experiment ended the following morning on Day 15. On the morning of Day 15, final readings were undertaken 16 h post-fast (i.e., body weight measurements). Animals were then dosed (as described). Four hours later, two blood samples (20 µL and 1 mL) were taken from the lateral tail vein into tubes containing lithium heparin. The 20 µL sample was stored frozen (whole blood) prior to determination of HbAlc (Roche Tina-quant A2c Gen 3, Cobas C111). […] Animals were then terminated by a Schedule 1 method (exposure to an increasing concentration of CO2 with death confirmed by cervical dislocation). A terminal blood sample (circa 4 mL) was taken into EDTA-coated tube and a single plasma aliquot (approximately 1 mL) was stored frozen (approx. -80° C.) in a clean aliquot tube. The liver was dissected and the caudate lobe removed. Both the caudate lobe and the remaining liver was weighed and stored frozen separately (on dry ice and then transferred to a freezer at approx. -80° C.). The caudate lobe underwent further analysis of liver triglycerides. Carcasses were stored frozen (approx. -20° C.) for potential body composition analysis. Metabolic parameters including fasting glucose and insulin levels, liver triglycerides and body fat composition were determined at the end of the study.
# [2] = system: female Sprague Dawley rats fed on a high-fat powdered diet; assay: Body weight, food intake, body composition and liver triglycerides, once daily dosing up to 15 days, high-fat diet rats (Example 2.1); format: in vivo, rat; settings: Olanzapine 3 mg/kg po
# Procedure: Body weight and food and water intake were assessed daily.
# Animals: Seventy-four (2 spares) female Sprague Dawley rats (weight range 200-300 g) were ordered from Charles River, Margate, Kent. Rats were singly housed in cages with sawdust bedding and enrichment at an ambient temperature of 21 ± 2° C. Upon arrival (Thursday), rats were weighed and given wet mash to aid recovery from transport. Rats were weighed the following day and on the Monday of the following week. Animals were maintained on a reverse-phase light-dark cycle (lights off for 8 hours from 10:00-18 :00 h) during which time the room was illuminated by red light. Rats were weighed on the Friday and Monday of the following week. […] Except for 12 animals (Group F), all animals had free access to a high-fat powdered diet (VRF1 plus 20% lard). […] All rats had access to filtered water at all times. The diets were contained in glass feeding jars with aluminum lids (Solmedia Laboratory Suppliers. Romford. Essex). […] Animals were accustomed to these conditions for at least two weeks before experimentation.
# Experimental Procedure: Animals underwent a 3-day baseline run-in period during which time all rats were dosed once a day with vehicle. Dosing was timed to start at approximately 08:45 so that the mid-point was approximately the time of lights out. Animals, food and water were weighed at the time of dosing. Towards the end of the baseline period, animals were weighed (to the nearest 0.1 g using an electronic top-pan balance) and allocated by a statistician. The spare animals were humanely withdrawn from the study.
# Dosing (in a randomized order) began at approximately 08:45 h each day (0 h), i.e., the mid-point of dosing is approximately at the time of lights out. Body weight, food and water intake was recorded daily at the time of dosing. All rats were observed before and after dosing and comments on condition were noted as appropriate. On the afternoon of Day 14 (approx. 16:00) animals were fasted to a timed schedule. The experiment ended the following morning on Day 15. On the morning of Day 15, final readings were undertaken 16 hour post-fast (i.e., body weight measurements). Animals were then dosed (as described). Four hours later, a blood sample (1 mL) was taken from the lateral tail vein into tubes containing lithium heparin. […] Animals were then terminated by a Schedule 1 method (exposure to an increasing concentration of C02 with death confirmed by cervical dislocation). A terminal blood sample (circa 4 mL) was taken into an EDTA-coated tube and a single plasma aliquot (approximately 1 mL) was stored frozen (approx. -80° C.) in a clean aliquot tube. The liver was dissected and the caudate lobe removed. Both the caudate lobe and the remaining liver were weighed and stored frozen separately (on dry ice and then transferred to a freezer at approx. -80° C.). The caudate lobe underwent option further analysis of liver triglycerides.
# [3] = Food effect on the pharmacokinetics of 50 mg tablet (Example 10); settings: 50 mg Compound 1 tablet
# From the text: Methods: The study used an open-label randomized 2-period crossover design in 20 healthy volunteers. Subjects were fasted overnight then randomly assigned to 1 of 2 dosing sequences, A ➔ B or B ➔ A, where A was the fasted condition and B was the fed condition. […] The fed and fasted dosing periods were separated by one week. Serial plasma samples from each period were collected for PK analysis.
# Solid phase extraction was used for sample cleanup. Stable isotope-labeled internal standards were used for corresponding analytes. Noncompartment PK parameters were calculated using Phoenix WinNonlin® software.
# [4] = Week 1 (Day 1-8), Olanzapine 3 mg/kg po
# [5] = Week 2 (Day 8-13), after olanzapine Day 1-7, 3 mg/kg po
# [6] = Week 2 (Day 8-14), continued Olanzapine 3 mg/kg po
# [7] = from Day 8, after olanzapine Day 1-7, 3 mg/kg po
smiles,measurement,setting,value
"Cc1cc2c(s1)Nc1ccccc1N=C2N1CCN(C)CC1 [Olanzapine, olanzapine]","increase in body weight, previously shown in-house in this model",[1]; Olanzapine 3 mg/kg po,4-6%
same,"Averages of daily food intakes, Difference vs Vehicle (A)","[1]; Week 1 (Day 1-7), 3 mg/kg po",1.90 g/day
same,"Averages of daily food intakes, Mean","[1]; Week 1 (Day 1-7), 3 mg/kg po",17.21 g/day
same,Changes in body weights Difference vs Vehicle (A),[1]; [4],13.07 g
same,Changes in body weights Mean,[1]; [4],25.48 g
same,"Averages of daily food intakes, Difference vs Vehicle (A)",[1]; [5],1.60 g/day
same,"Averages of daily food intakes, Mean",[1]; [5],16.73 g/day
same,Changes in body weights Difference vs Vehicle (A),[1]; [6],7.55 g
same,Changes in body weights Mean,[1]; [6],16.70 g
same,"Fat in carcass, % change vs Vehicle (A)",[1]; [7],18.3%
same,"Fat in carcass, Difference vs Vehicle (A)",[1]; [7],2.4%
same,"Fat in carcass, Mean",[1]; [7],15.8%
same,"Fat per rat, % change vs Vehicle (A)",[1]; [7],22.7%
same,"Fat per rat, Difference vs Vehicle (A)",[1]; [7],8.0 g
same,"Fat per rat, Mean",[1]; [7],43.3 g
same,"Final carcass weight, % change vs Vehicle (A)",[1]; [7],4.1%
same,"Final carcass weight, Mean",[1]; [7],271.9 g
same,"Liver triglycerides (µmol total), % vs Vehicle (A)",[1]; [7],100.4%
same,"Liver triglycerides (µmol/g), % vs Vehicle (A)",[1]; [7],100.0%
same,"Liver triglycerides, Mean",[1]; [7],348 µmol total
same,"Protein in carcass, % change vs Vehicle (A)",[1]; [7],-2.4%
same,"Protein in carcass, Difference vs Vehicle (A)",[1]; [7],-0.49%
same,"Protein in carcass, Mean",[1]; [7],20.24%
same,"Protein per rat, % change vs Vehicle (A)",[1]; [7],1.6%
same,"Protein per rat, Difference vs Vehicle (A)",[1]; [7],0.9 g
same,"Protein per rat, Mean",[1]; [7],55.0 g
same,"Water in carcass, % change vs Vehicle (A)",[1]; [7],-3.6%
same,"Water in carcass, Difference vs Vehicle (A)",[1]; [7],-2.2%
same,"Water in carcass, Mean",[1]; [7],60.4%
same,"Water per rat, % change vs Vehicle (A)",[1]; [7],0.3%
same,"Water per rat, Difference vs Vehicle (A)",[1]; [7],0.6 g
same,"Water per rat, Mean",[1]; [7],163.9 g
same,Fat in carcass % change vs vehicle,[2],8.8%
same,Fat in carcass Difference vs vehicle,[2],1.4%
same,"Fat in carcass, Mean",[2],16.9%
same,Fat per rat % change vs vehicle,[2],12.4%
same,Fat per rat Difference vs vehicle,[2],5.2 g
same,"Fat per rat, Mean",[2],47.0 g
same,Liver Total triglycerides Mean,[2],227.46 µmol
same,Liver Total triglycerides vs vehicle,[2],85.6
same,Liver triglycerides % vs vehicle,[2],77.1%
same,"Liver triglycerides, Mean",[2],25.07 µmol/g
same,Protein in carcass % change vs vehicle,[2],-1.8%
same,Protein in carcass Difference vs vehicle,[2],-0.38%
same,"Protein in carcass, Mean",[2],20.46%
same,Protein per rat % change vs vehicle,[2],3.5%
same,Protein per rat Difference vs vehicle,[2],1.9 g
same,"Protein per rat, Mean",[2],56.9 g
same,Water in carcass % change vs vehicle,[2],-1.4%
same,Water in carcass Difference vs vehicle,[2],-0.8%
same,"Water in carcass, Mean",[2],59.9%
same,Water per rat % change vs vehicle,[2],3.6%
same,Water per rat Difference vs vehicle,[2],5.8 g
same,"Water per rat, Mean",[2],166.5 g
same,Daily food intake % change,[2]; Overall (Day 1-13),13.6%
same,Daily food intake Difference,[2]; Overall (Day 1-13),2.0 g/day
same,Daily food intake Mean,[2]; Overall (Day 1-13),16.4 g/day
same,Changes in body weights Difference vs vehicle,[2]; Overall (Day 1-14),21.5 g
same,Changes in body weights Mean,[2]; Overall (Day 1-14),33.2 g
NC[C@@H]1OCCc2ccsc21 [metabolite],geometric mean ratio for AUC0-∞ (fed/fasted),[3],98.29%
same,geometric mean ratio of Cmax (fed/fasted),[3],94.77%
same,"ratio of N-desmethyl active metabolite to parent Compound 1, fed versus fasted",[3],no change
